We go through one compound from ChEMBL document CHEMBL1240518, “Replacement of the Lys linker with an Arg linker resulting in improved melanoma uptake and reduced renal uptake of Tc-99m-labeled Arg-Gly-Asp-conjugated alpha-melanocyte stimulating hormone hybrid peptide” (Bioorg Med Chem, 2010).

This assay can be described thus: Cytotoxicity against mouse B16-F1 cells assessed as reduction of cell survival after 3 hrs by clonogenic assay relative to control.

Residues, ends and D or L forms follow the SMILES beside them.

As for `N=C(N)NCCC[C@@H]1NC(=O)CNC(=O)[C@H](CC(=O)O)NC(=O)[C@H](Cc2ccc(O)cc2)NC(=O)[C@H](CC(=O)O)NC1=O` (cyclo(DGRDY)), the Activity is reported as 7%.
